In patent publication US11214594B2, “Antimicrobial peptide having synergistic antibacterial effect with antibiotics on multidrug resistant bacteria, and use thereof” (priority 2016, dated 2022):
Values after ≈ are worked out from the molar mass of the structure shown. Where two headings read alike, the source gives them in different places. Where a SMILES comes first, the peptide text is derived from it.

How the values were obtained:
[1] = test system: MDRAB 12036; format: cell-based, Acinetobacter baumannii
Protocol: (§1) For the antibacterial activity, a minimal inhibitory concentration (MIC) of a peptide in which fungus bodies were not split in an MH medium with sufficient nutrients was measured.
(§2) Specifically, the strains described in the following [Table 2] were purchased and diluted with an MH medium such that the number of bacteria was 2×10^6 colony-forming units (CFUs), 100 μl of each of the diluted strains was aliquoted into a 96-well microtiter plate, and then 100 μl of a peptide solution diluted with the MH medium (solution diluted stepwise at 2: 1) was added to each well.

[2] = test system: gram-negative bacteria; test: MIC, summary statements for gram-negative bacteria; format: cell-based; details: gram-negative bacteria
Protocol: as §1, §2

[3] = test system: S. epidermidis; test: microbe, parasite or virus in culture; format: cell-based, Staphylococcus epidermidis
Protocol: as §1, §2

[4] = test system: MDRPA 2003; format: cell-based, Pseudomonas aeruginosa
Protocol: as §1, §2

[5] = test system: MDRPA 2002; format: cell-based, Pseudomonas aeruginosa
Protocol: as §1, §2

[6] = test system: E. coli; format: cell-based, Escherichia coli; details: for Peptide MIC during treatment with erythromycin / Peptide MIC during treatment with linezolid / Peptide MIC during treatment with vancomycin: E. coli
Protocol: (§3) Specifically, the strains described in [Table 2] were prepared and diluted with an MH medium such that the number of bacteria was 2×10^6 colony-forming units (CFUs) per 1 ml, 100 μl of the diluted strains was each aliquoted into a 96-well microtiter plate, and then 50 μl of a peptide solution diluted with the MH medium from the MIC value (solution diluted stepwise at 2: 1) was added to each well. Thereafter, the MIC value of each mixed solution was determined by diluting the antibiotic solution with the MH medium, adding 50 μl of the diluted solution to each well, and performing an experiment even under a reversed condition.

[7] = test system: MDREC 1229; test: microbe, parasite or virus in culture; format: cell-based, Escherichia coli
Protocol: as §1, §2

[8] = test system: E. coli; test: microbe, parasite or virus in culture; format: cell-based, Escherichia coli
Protocol: as §1, §2

[9] = test system: E. coli; test: MIC of antibiotic during combined treatment with antimicrobial peptide; format: cell-based, Escherichia coli; details: E. coli and A. baumannii; antibiotic MIC with papiliocin
Protocol: Thereafter, the MIC value of each mixed solution was determined by diluting the antibiotic solution with the MH medium, adding 50 μl of the diluted solution to each well, and performing an experiment even under a reversed condition.

[10] = test system: MDREC 1238; format: cell-based, Escherichia coli
Protocol: as §1, §2

[11] = test system: gram-positive bacteria; test: MIC, summary statements for gram-positive bacteria; format: cell-based
Protocol: as §1, §2

[12] = test system: S. typhimurium; test: microbe, parasite or virus in culture; format: cell-based, Salmonella typhimurium
Protocol: as §1, §2

[13] = test system: B. subtilis; test: microbe, parasite or virus in culture; format: cell-based, Bacillus subtilis
Protocol: as §1, §2

[14] = test system: S. aureus; test: microbe, parasite or virus in culture; format: cell-based, Staphylococcus aureus
Protocol: as §1, §2

[15] = test system: MRSA 3114; format: cell-based, Staphylococcus aureus; details: 3114
Protocol: as §1, §2

[16] = test system: MRSA 3126; format: cell-based, Staphylococcus aureus; details: 3126
Protocol: as §1, §2

[17] = test system: A. baumannii; test: MIC of antimicrobial peptide during combined treatment with antibiotic; format: cell-based, Acinetobacter baumannii
Protocol: as §3

[18] = test system: MDRAB 12035; test: microbe, parasite or virus in culture; format: cell-based, Acinetobacter baumannii
Protocol: as §1, §2

[19] = test system: A. baumannii; test: microbe, parasite or virus in culture; format: cell-based, Acinetobacter baumannii
Protocol: as §1, §2

[20] = test system: P. aeruginosa; test: microbe, parasite or virus in culture; format: cell-based, Pseudomonas aeruginosa
Protocol: as §1, §2

[21] = linezolid 32 μg/ml (Conc./MIC 1/8)
[22] = linezolid 64 μg/ml (Conc./MIC 1/4)
[23] = vancomycin 512 μg/ml (Conc./MIC 1/2)
[24] = vancomycin 1024 μg/ml (Conc./MIC 1)

CC[C@H](C)[C@H](NC(=O)CNC(=O)[C@H](CC(=O)O)NC(=O)[C@H](CCCNC(=N)N)NC(=O)[C@@H](NC(=O)[C@H](CC(N)=O)NC(=O)[C@H](CCCNC(=N)N)NC(=O)CNC(=O)[C@@H](NC(=O)[C@H](CCCCN)NC(=O)[C@H](CCC(=O)O)NC(=O)[C@@H](NC(=O)[C@H](CCCCN)NC(=O)[C@H](CCCCN)NC(=O)[C@H](Cc1ccccc1)NC(=O)[C@@H](NC(=O)[C@H](CCCCN)NC(=O)[C@H](Cc1c[nH]c2ccccc12)NC(=O)[C@@H](N)CCCNC(=N)N)[C@@H](C)CC)[C@@H](C)CC)C(C)C)C(C)C)C(=O)N[C@H](C(=O)N[C@@H](CCCCN)C(=O)N[C@@H](C)C(=O)NCC(=O)N1CCC[C@H]1C(=O)N[C@@H](C)C(=O)N[C@H](C(=O)N[C@@H](C)C(=O)N[C@H](C(=O)N[C@H](C(=O)NCC(=O)N[C@@H](CCC(N)=O)C(=O)N[C@@H](C)C(=O)N[C@@H](C)C(=O)N[C@H](C(=O)N[C@H](C(=O)N[C@H](C(=O)N[C@@H](CCCCN)C(N)=O)C(C)C)C(C)C)[C@@H](C)O)C(C)C)C(C)C)C(C)C)[C@@H](C)CC [Papiliocin, reference compound] (H-RWKIFKKIEKVGRNVRDGIIKAGPAVAVVGQAATVVK-NH2; N-terminus and C-terminus assumed)
Minimal inhibitory concentration MIC [1]: 16 µg/mL (≈ 4 µM) | Antibacterial activity (in words) [2]: very high antibacterial activity | Minimal inhibitory concentration MIC [3]: >128 µg/mL | Minimal inhibitory concentration MIC [4]: 16 µg/mL (≈ 4 µM) | Minimal inhibitory concentration MIC [5]: 16 µg/mL (≈ 4 µM) | Peptide MIC during treatment with erythromycin ([6]; erythromycin 16 μg/ml (Conc./MIC 1/8)): 4 µg/mL | Peptide MIC during treatment with erythromycin ([6]; erythromycin 32 μg/ml (Conc./MIC 1/4)): 4 µg/mL | Peptide MIC during treatment with erythromycin ([6]; erythromycin 64 μg/ml (Conc./MIC 1/2)): 4 µg/mL | Peptide MIC during treatment with erythromycin ([6]; erythromycin […] (Conc./MIC 1)): 0 µg/mL | Peptide MIC during treatment with linezolid [6, 21]: 8 µg/mL | Peptide MIC during treatment with linezolid [6, 22]: 4 µg/mL | Peptide MIC during treatment with linezolid ([6]; linezolid […] (Conc./MIC 1)): 0 µg/mL | Peptide MIC during treatment with linezolid ([6]; linezolid […] (Conc./MIC 1/2)): 4 µg/mL | Peptide MIC during treatment with vancomycin [6, 23]: 2 µg/mL | Peptide MIC during treatment with vancomycin [6, 24]: 0 µg/mL | Peptide MIC during treatment with vancomycin ([6]; vancomycin […] (Conc./MIC 1/4)): 2 µg/mL | Peptide MIC during treatment with vancomycin ([6]; vancomycin […] (Conc./MIC 1/8)): 4 µg/mL | Synergistic effect on peptide MIC when mixed with antibiotics (in words) ([6]; papiliocin as comparative control (Table 34)): does not have a synergistic effect | Minimal inhibitory concentration MIC [7]: 8 µg/mL (≈ 2 µM) | Peptide MIC, single treatment [8]: 8 µg/mL | Minimal inhibitory concentration MIC ([8]; 16 h): 8 µg/mL (≈ 2 µM) | Synergistic effect of combination with the antibiotics (in words) [9]: does not have a great synergistic effect | Minimal inhibitory concentration MIC [10]: 16 µg/mL (≈ 4 µM) | Antibacterial activity (in words) [11]: very low antibacterial activity | Minimal inhibitory concentration MIC [12]: 16 µg/mL (≈ 4 µM) | Minimal inhibitory concentration MIC [13]: >128 µg/mL | Minimal inhibitory concentration MIC [14]: >128 µg/mL | Minimal inhibitory concentration MIC [15]: >128 µg/mL | Minimal inhibitory concentration MIC [16]: >128 µg/mL | Peptide MIC during treatment with erythromycin ([17]; erythromycin 4 μg/ml (Conc./MIC 1/8)): 8 µg/mL | Peptide MIC during treatment with erythromycin ([17]; erythromycin 8 μg/ml (Conc./MIC 1/4)): 4 µg/mL | Peptide MIC during treatment with erythromycin ([17]; erythromycin 16 μg/ml (Conc./MIC 1/2)): 4 µg/mL | Peptide MIC during treatment with erythromycin ([17]; erythromycin 32 μg/ml (Conc./MIC 1)): 0 µg/mL | Peptide MIC during treatment with linezolid [17, 21]: 8 µg/mL | Peptide MIC during treatment with linezolid [17, 22]: 4 µg/mL | Peptide MIC during treatment with linezolid ([17]; linezolid […] (Conc./MIC 1)): 0 µg/mL | Peptide MIC during treatment with linezolid ([17]; linezolid […] (Conc./MIC 1/2)): 4 µg/mL | Peptide MIC during treatment with vancomycin [17, 23]: 2 µg/mL | Peptide MIC during treatment with vancomycin [17, 24]: 0 µg/mL | Peptide MIC during treatment with vancomycin ([17]; vancomycin […] (Conc./MIC 1/4)): 2 µg/mL | Peptide MIC during treatment with vancomycin ([17]; vancomycin […] (Conc./MIC 1/8)): 4 µg/mL | Minimal inhibitory concentration MIC [18]: 8 µg/mL (≈ 2 µM) | Minimal inhibitory concentration MIC [19]: 8 µg/mL (≈ 2 µM) | Peptide MIC, peptide alone [19]: 8 µg/mL | Minimal inhibitory concentration MIC [20]: 16 µg/mL (≈ 4 µM)
